Assay [1] deals with T1, CDK12–cyclin K and DDB1 (Homo sapiens, UniProt Q16531+Q9NYV4, K965R).
T1 construct: His6–CDK12 (a.a. 713–1,052); full-length or beta-propeller B domain deletion (ΔBPB: a.a. 396–705 deleted) constructs of His6–DDB1ΔBPB, StrepII–Avi–DDB1, or His6–Spy–DDB1; made in house; host or cells: Trichoplusia ni High Five insect cells (baculovirus)
Briefly: TR-FRET ternary complex formation assay (compound titration). The class given is binding. The following applies: for TR-FRET signal at compound concentration: replicate titrations. Summed up: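 TR-FRET ratio 520/490 nm; 70 μs delay before read to suppress background.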
Background: In TR-FRET formats the signal depends on donor and acceptor labels being close together.

The subject of assay [2] is cyclin K–eGFP degradation reporter. The assay is described as follows: Cyclin K reporter stability analysis (dual-color cyclin K–eGFP reporter). Type of assay: cell-based, human. The essentials: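 HEK293T–Cas9 cells carrying the cyclin K–eGFP reporter were seeded at 1 × 10^6 ml^−1 and exposed to drug or DMSO for 5 h. Flow cytometry gave geometric means of eGFP and mCherry in round, mCherry-positive cells. The eGFP/mCherry ratio was normalized to the mean of three DMSO controls.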

Assay [3] concerns HEK293T cells. Briefly: Drug sensitivity assay (CellTiter-Glo viability) with or without MLN4924 pretreatment. Type of assay: cell-based, human. Conditions: for EC50: Homo sapiens, HEK-293T; for Toxicity rescue: MLN4924-mediated cytotoxicity rescue, 10 µM used where n.d. The essentials: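 Luminescent ATP read-out (CellTiter-Glo) after 3 days of drug exposure, normalised to DMSO controls. Cells were HEK293T–Cas9, pretreated with 100 nM MLN4924 or DMSO for 2 h before drug dispensing.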
(In general: ATP-based viability assays read luminescence as a measure of living cells.)

Where [4] appears, read: compound concentration 79.2001 nM.
Where [5] appears, read: compound concentration 158.4 nM.
[6] abbreviates: compound concentration 309.6 nM.
The mark [7] stands for this setting: compound concentration 626.401 nM.
Setting [8] is: compound concentration 1252.8 nM.
The mark [9] stands for this setting: compound concentration 9936.01 nM.
[10] abbreviates: compound concentration 20016 nM.
[11] abbreviates: in vitro complex formation, 50 nM CDK12–cyclin K, 100 nM DDB1, text and figures, read-out: TR-FRET EC50.
[12] abbreviates: sheet MOESM7, read-out: log TR-FRET EC50 (converted).
The mark [13] stands for this setting: Supplementary Table 2, HEK293T cycK-eGFP reporter, 5 h, read-out: Cellular assays DC50.
Setting [14] is: Supplementary Table 2, HEK293T viability, 72 h, compound alone, read-out: Cellular assays EC50.
The mark [15] stands for this setting: compound concentration 0.468 nM.
[16] abbreviates: compound concentration 7.92001 nM.
The mark [17] stands for this setting: compound concentration 15.84 nM.
Where [18] appears, read: compound concentration 30.96 nM.
Where [19] appears, read: compound concentration 62.6401 nM.
The mark [20] stands for this setting: compound concentration 125.28 nM.
[21] abbreviates: compound concentration 244.8 nM.
Where [22] appears, read: compound concentration 993.601 nM.
Setting [23] is: compound concentration 2001.6 nM.

Several values for one entry are separate records, joined by “and”; a condition that tells them apart may be missing. Equal entries are not always repeated. Where two headings read alike, the source gives them in different places.

T1 sequence (Q9NYV4 713-1052 K965R): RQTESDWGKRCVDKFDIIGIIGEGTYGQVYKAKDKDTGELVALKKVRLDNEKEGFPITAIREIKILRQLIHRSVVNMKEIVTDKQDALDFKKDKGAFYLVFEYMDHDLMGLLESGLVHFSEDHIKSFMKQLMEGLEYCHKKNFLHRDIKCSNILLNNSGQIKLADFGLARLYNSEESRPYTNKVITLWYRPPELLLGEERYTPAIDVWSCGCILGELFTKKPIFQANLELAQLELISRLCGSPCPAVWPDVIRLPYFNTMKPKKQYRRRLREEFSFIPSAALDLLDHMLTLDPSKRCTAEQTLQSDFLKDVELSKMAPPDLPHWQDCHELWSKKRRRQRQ
T1 sequence (O75909 1-267 partner): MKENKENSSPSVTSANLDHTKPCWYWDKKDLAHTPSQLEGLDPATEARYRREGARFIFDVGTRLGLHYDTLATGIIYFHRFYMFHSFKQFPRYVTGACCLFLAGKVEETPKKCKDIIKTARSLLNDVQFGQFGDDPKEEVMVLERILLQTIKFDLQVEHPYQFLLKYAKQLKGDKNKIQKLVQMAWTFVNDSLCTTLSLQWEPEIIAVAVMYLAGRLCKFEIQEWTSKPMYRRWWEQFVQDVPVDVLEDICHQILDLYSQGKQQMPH
T1 sequence (Q16531 whole entry): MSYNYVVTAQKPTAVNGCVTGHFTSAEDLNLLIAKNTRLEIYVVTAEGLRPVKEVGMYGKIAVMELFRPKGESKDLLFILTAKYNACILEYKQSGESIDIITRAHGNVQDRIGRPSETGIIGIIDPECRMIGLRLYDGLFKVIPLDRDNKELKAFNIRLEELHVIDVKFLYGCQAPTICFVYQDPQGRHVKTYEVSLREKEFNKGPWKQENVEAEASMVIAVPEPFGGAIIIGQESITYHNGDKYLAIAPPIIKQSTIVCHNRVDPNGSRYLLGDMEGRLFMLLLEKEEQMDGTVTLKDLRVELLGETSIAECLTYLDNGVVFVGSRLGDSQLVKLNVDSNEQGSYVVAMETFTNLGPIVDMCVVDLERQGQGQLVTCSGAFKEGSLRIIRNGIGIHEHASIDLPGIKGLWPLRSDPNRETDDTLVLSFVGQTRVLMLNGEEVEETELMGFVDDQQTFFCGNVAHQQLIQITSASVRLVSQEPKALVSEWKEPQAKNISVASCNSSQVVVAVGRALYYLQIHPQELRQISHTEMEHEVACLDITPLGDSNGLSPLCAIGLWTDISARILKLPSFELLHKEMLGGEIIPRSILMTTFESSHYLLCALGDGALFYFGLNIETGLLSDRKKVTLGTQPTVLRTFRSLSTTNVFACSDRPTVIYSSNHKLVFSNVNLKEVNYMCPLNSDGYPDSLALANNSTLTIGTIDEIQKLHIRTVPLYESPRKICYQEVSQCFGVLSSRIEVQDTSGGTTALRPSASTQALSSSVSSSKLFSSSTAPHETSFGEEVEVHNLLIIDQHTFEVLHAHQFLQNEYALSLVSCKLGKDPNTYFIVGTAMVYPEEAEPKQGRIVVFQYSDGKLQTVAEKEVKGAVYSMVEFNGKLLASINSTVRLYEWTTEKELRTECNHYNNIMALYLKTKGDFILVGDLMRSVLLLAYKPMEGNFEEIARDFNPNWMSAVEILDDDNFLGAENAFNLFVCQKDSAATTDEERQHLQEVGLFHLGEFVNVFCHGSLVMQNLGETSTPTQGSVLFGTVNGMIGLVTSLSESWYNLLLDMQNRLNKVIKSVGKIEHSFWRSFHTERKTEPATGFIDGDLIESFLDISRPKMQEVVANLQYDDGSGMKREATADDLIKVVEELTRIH

With `CC[C@H](CO)Nc1nc(NCCCc2ccco2)c2ncn(C(C)C)c2n1` [DS34], the EC50 (commonly the concentration that produces a half-maximal response) in assay [1] (Supplementary Table 2, read-out: TR-FRET EC50 TR-FRET) was 603 nM; in assay [1] (setting [11]), 603 ± 62 nM; in assay [1] (setting [12]), 603 nM; in assay [3] (setting [14]), over 10000 nM. For the same compound, the “TR-FRET signal at compound concentration” value is 0.2091 and 0.2292 in assay [1] (compound concentration 4.68 nM); 0.229 and 0.2555 in assay [1] (compound concentration 21.6 nM); 0.2532 and 0.2765 in assay [1] (compound concentration 36 nM); 0.311 and 0.3352 in assay [1] (setting [4]); 0.3881 and 0.4084 in assay [1] (setting [5]); 0.5012 and 0.4942 in assay [1] (setting [6]). The “TR-FRET signal at compound concentration” value is 0.6373 and 0.6895 in assay [1] (setting [7]); 0.7887 and 0.8649 in assay [1] (setting [8]); 0.8803 and 0.974 in assay [1] (compound concentration 2448 nM); 1.0289 and 1.143 in assay [1] (setting [9]); 1.011 and 1.0565 in assay [1] (setting [10]). The DC50 (as a rule, the concentration giving 50% degradation) in assay [2] (setting [13]) was over 10000 nM. In assay [3] (Supplementary Table 2), the Toxicity rescue worked out at 0%.
As to `CC[C@H](CO)Nc1nc(NCc2ccc3ccccc3c2)c2ncn(C(C)C)c2n1` [DS08], the TR-FRET signal in assay [1] (setting [15]) was 0.2538 and 0.248 and 0.2145 and 0.2136; in assay [1] (compound concentration 2.16 nM), 0.2768 and 0.2874 and 0.2634 and 0.2686; in assay [1] (compound concentration 3.6 nM), 0.3502 and 0.3555 and 0.3511 and 0.3733; in assay [1] (setting [16]), 0.4902 and 0.4911 and 0.5114 and 0.5651; in assay [1] (setting [17]), 0.7316 and 0.7507 and 0.8127 and 0.857; in assay [1] (setting [18]) it was 1.126 and 1.191 and 1.297 and 1.247. For the same compound, the TR-FRET signal in assay [1] (setting [19]) is 1.6143 and 1.736 and 1.841 and 1.867; in assay [1] (setting [20]) it was 2.093 and 2.298 and 2.427 and 2.467; in assay [1] (setting [21]) it was 2.523 and 2.773 and 2.7872 and 2.833; in assay [1] (setting [22]), 2.957 and 3.301 and 3.125 and 3.145; in assay [1] (setting [23]), 3.117 and 3.31 and 3.185 and 3.127. The “TR-FRET signal, individual replicate” value in assay [1] (setting [15]) is 0.2538 and 0.248 and 0.2145 and 0.2136; in assay [1] (compound concentration 2.16 nM), 0.2768 and 0.2874 and 0.2634 and 0.2686; in assay [1] (compound concentration 3.6 nM), 0.3502 and 0.3555 and 0.3511 and 0.3733; in assay [1] (setting [16]) it was 0.4902 and 0.4911 and 0.5114 and 0.5651; in assay [1] (setting [17]), 0.7316 and 0.7507 and 0.8127 and 0.857; in assay [1] (setting [18]) it was 1.126 and 1.191 and 1.297 and 1.247. In addition, the “TR-FRET signal, individual replicate” value was 1.6143 and 1.736 and 1.841 and 1.867 in assay [1] (setting [19]); 2.093 and 2.298 and 2.427 and 2.467 in assay [1] (setting [20]); 2.523 and 2.773 and 2.7872 and 2.833 in assay [1] (setting [21]); 2.957 and 3.301 and 3.125 and 3.145 in assay [1] (setting [22]); 3.117 and 3.31 and 3.185 and 3.127 in assay [1] (setting [23]). For the same compound, the “TR-FRET signal at compound concentration” value in assay [1] (setting [15]) was 0.2538 and 0.248 and 0.2145 and 0.2136; in assay [1] (compound concentration 2.16 nM), 0.2768 and 0.2874 and 0.2634 and 0.2686; in assay [1] (compound concentration 3.6 nM), 0.3502 and 0.3555 and 0.3511 and 0.3733; in assay [1] (setting [16]), 0.4902 and 0.4911 and 0.5114 and 0.5651; in assay [1] (setting [17]), 0.7316 and 0.7507 and 0.8127 and 0.857; in assay [1] (setting [18]), 1.126 and 1.191 and 1.297 and 1.247. Also, the “TR-FRET signal at compound concentration” value in assay [1] (setting [19]) was 1.6143 and 1.736 and 1.841 and 1.867; in assay [1] (setting [20]), 2.093 and 2.298 and 2.427 and 2.467; in assay [1] (setting [21]), 2.523 and 2.773 and 2.7872 and 2.833; in assay [1] (setting [22]), 2.957 and 3.301 and 3.125 and 3.145; in assay [1] (setting [23]), 3.117 and 3.31 and 3.185 and 3.127. The 50% effective concentration (EC50) in assay [1] (setting [11]) is 60 nM; in assay [1] (setting [12]) it was 60.3 nM; in assay [1] (source data sheet correlations, read-out: TR-FRET EC50), 60.3 nM; in assay [3] (Supplementary Fig. 5, HEK293T, CellTiter Glo, 72h, read-out: Viability EC50, no MLN4924), 3380 nM; in assay [3] (setting [14]), 3500 nM. Also, the DC50 in assay [2] (source data sheet correlations, read-out: DC50) turned out to be 724 nM. Also, the Toxicity rescue in assay [3] (Supplementary Table 2) came to 186%.
Regarding `CC[C@H](CO)Nc1nc(NCCc2ccccc2)c2ncn(C(C)C)c2n1` [DS31], the “fold lower affinity than DS11” value in assay [1] (TR-FRET complex formation) is listed as 12-22 fold. The “TR-FRET signal at compound concentration” value was 0.211 and 0.2282 in assay [1] (compound concentration 4.68 nM); 0.2112 and 0.2225 in assay [1] (compound concentration 21.6 nM); 0.2194 and 0.2418 in assay [1] (compound concentration 36 nM); 0.2283 and 0.2565 in assay [1] (setting [4]); 0.2533 and 0.2816 in assay [1] (setting [5]); 0.2963 and 0.3231 in assay [1] (setting [6]). Also, the “TR-FRET signal at compound concentration” value in assay [1] (setting [7]) is 0.3477 and 0.3849; in assay [1] (setting [8]) it was 0.4331 and 0.4555; in assay [1] (compound concentration 2448 nM), 0.5457 and 0.5736; in assay [1] (setting [9]) it was 0.6887 and 0.7282; in assay [1] (setting [10]), 0.6557 and 0.645. The EC50 in assay [1] (setting [11]) was 1230 ± 134 nM; in assay [3] (setting [14]), over 10000 nM. In addition, in assay [2] (setting [13]), the DC50 was over 10000 nM. For the same compound, the Toxicity rescue in assay [3] (Supplementary Table 2) is 0%.
Regarding `CC[C@H](CO)Nc1nc(NCc2ccc(-c3ccc(-c4ccccc4)cc3)cc2)c2ncn(C(C)C)c2n1` [DS04], the “TR-FRET signal at compound concentration” value in assay [1] (compound concentration 4.68 nM) is 0.1371 and 0.1443; in assay [1] (compound concentration 21.6 nM) it was 0.1368 and 0.1484; in assay [1] (compound concentration 36 nM) it was 0.135 and 0.1532; in assay [1] (setting [4]), 0.1341 and 0.1519; in assay [1] (setting [5]), 0.132 and 0.1491; in assay [1] (setting [6]) it was 0.1322 and 0.1487. The “TR-FRET signal at compound concentration” value in assay [1] (setting [7]) is 0.1292 and 0.1438; in assay [1] (setting [8]), 0.1234 and 0.1372; in assay [1] (compound concentration 2448 nM) it was 0.1186 and 0.1335; in assay [1] (setting [9]) it was 0.1139 and 0.1272; in assay [1] (setting [10]), 0.1066 and 0.1169. In addition, the “DDB1–CDK12 complex formation, result in words” value in assay [1] (in vitro TR-FRET) is reported as “abolished binding”. For the same compound, in assay [2] (setting [13]), the DC50 was over 10000 nM. Further, in assay [3] (setting [14]), the EC50 was over 10000 nM. In assay [3] (Supplementary Table 2), the Toxicity rescue was determined as 0%.
With `COC[C@@H](C)N[C@H]1CC[C@H](Nc2cc(-c3cccc(NCC4(C#N)CCOCC4)n3)c(Cl)cn2)CC1` [NVP-2, reference compound], in assay [1] (compound concentration 4.68 nM, raw replicate titration data), the “TR-FRET signal at compound concentration 4.68 nM” value is 0.1362 and 0.1646. The “TR-FRET signal at compound concentration 21.6 nM” value in assay [1] (compound concentration 21.6 nM, raw replicate titration data) is 0.1797 and 0.2051. The “TR-FRET signal at compound concentration 36 nM” value in assay [1] (compound concentration 36 nM, raw replicate titration data) is 0.2299 and 0.264. For the same compound, the “TR-FRET signal at compound concentration 79.2001 nM” value in assay [1] (compound concentration 79.2001 nM, raw replicate titration data) was 0.275 and 0.3223. In addition, the “TR-FRET signal at compound concentration 158.4 nM” value in assay [1] (compound concentration 158.4 nM, raw replicate titration data) is 0.3283 and 0.3614. The “TR-FRET signal at compound concentration 309.6 nM” value in assay [1] (compound concentration 309.6 nM, raw replicate titration data) is 0.3492 and 0.3941. For the same compound, the “TR-FRET signal at compound concentration 626.401 nM” value in assay [1] (compound concentration 626.401 nM, raw replicate titration data) was 0.3927 and 0.4325. For the same compound, the “TR-FRET signal at compound concentration 1252.8 nM” value in assay [1] (compound concentration 1252.8 nM, raw replicate titration data) is 0.4009 and 0.4489. Also, the “TR-FRET signal at compound concentration 2448 nM” value in assay [1] (compound concentration 2448 nM, raw replicate titration data) is 0.4033 and 0.4482. In addition, the “TR-FRET signal at compound concentration 9936.01 nM” value in assay [1] (compound concentration 9936.01 nM, raw replicate titration data) was 0.3857 and 0.4199. The “TR-FRET signal at compound concentration 20016 nM” value in assay [1] (compound concentration 20016 nM, raw replicate titration data) is 0.3623 and 0.3979. Also, the figures for the EC50 in assay [1] (setting [11]) and in assay [3] (setting [14]) were 62 ± 13 nM and 23 nM, respectively. Besides, the DC50 in assay [2] (setting [13]) was over 10000 nM. Moreover, the Toxicity rescue in assay [3] (Supplementary Table 2) is reported as -22%.

(Values after article PMC10746543, “Design principles for cyclin K molecular glue degraders” (Nature Chemical Biology, 2023).)
